pIC50: −log10 of the molar value. In brackets after ≈: the same amount, converted by molar mass. Like-named read-outs stand apart in the source and are kept apart here.
Legend:
P. aeruginosa ATCC 27853 [1] = experiment: Antibiotic potentiation (MIC of antibiotics in the presence of synergizing compounds), P. aeruginosa; assay type: cell-based, Pseudomonas aeruginosa; details: concentration required to restore doxycycline activity at 2 µg/mL (4.5 µM) against P. aeruginosa ATCC 27853
S. aureus ATCC 25923 = experiment: Antimicrobial susceptibility (MIC), S. aureus; assay type: cell-based, Staphylococcus aureus; details: for MIC: Staphylococcus aureus, ATCC25923, S. aureus ATCC 25923, mean (n = 3)
Description: (§1) The susceptibility of bacterial strains S. aureus (ATCC 25923), E. coli (ATCC 25922) and P. aeruginosa (ATCC 27853) to antibiotics and compounds was determined according to previously reported protocols. Additional antimicrobial evaluation against MRSA (ATCC 43300) and C. albicans (ATCC 90028) was undertaken at the Community for Open Antimicrobial Drug Discovery at The University of Queensland (Australia) according to their standard protocols as reported previously.

C. albicans ATCC 90028 = experiment: Antifungal susceptibility (MIC), C. albicans; assay type: cell-based; details: Candida albicans, ATCC90028, mean (n = 2)
Description: as §1

MRSA ATCC 43300 = experiment: Antimicrobial susceptibility (MIC), MRSA; assay type: cell-based; details: Staphylococcus aureus, read-out: MIC MRSA
Description: as §1

E. coli ATCC 25922 = experiment: Antimicrobial susceptibility (MIC), E. coli; assay type: cell-based; details: Escherichia coli, ATCC25922, mean (n = 3)
Description: as §1

P. aeruginosa ATCC 27853 [2] = experiment: Antimicrobial susceptibility (MIC), P. aeruginosa; assay type: cell-based; details: Pseudomonas aeruginosa
Description: as §1

human red blood cells = experiment: Hemolytic assay; assay type: cell-based; details: mean (n = 2)
Description: Hemolysis assays were conducted according to previously reported protocols.

[3] = Cytotoxicity assay HEK293; assay type: cell-based, human; details: human, HEK293 cells, mean (n = 2), read-out: Cyto. IC50 (concentration of compound at 50% cytotoxicity)
Description: Cytotoxicity assays were conducted according to previously reported protocols.

[4] = ATCC27853, mean (n = 3), read-out: MIC P. a

| Structure (SMILES) | MIC (S. aureus ATCC 25923) [µM] | MIC (C. albicans ATCC 90028) [µM] | MIC (MRSA ATCC 43300; MRSA ATCC 43300, mean (n = 2)) [µM] | MIC (E. coli ATCC 25922) [µM] | MIC (P. aeruginosa ATCC 27853 [2]; [4]) [µM] | S. aureus and MRSA MIC (range over both strains) (S. aureus ATCC 25923; S. aureus ATCC 25923 and MRSA, summary range in text) [µM] | MIC (P. aeruginosa ATCC 27853 [2]; ATCC27853, read-out: observed MIC of doxycycline) [µg/mL] | Conc (µM) for Potentiation of doxycycline (P. aeruginosa ATCC 27853 [1]) [µM] | Hem. HC10 (concentration of compound at 10% hemolytic activity) (human red blood cells) [µM] | pIC50 [3] | MIC (MRSA ATCC 43300) [µM] |
| --- | --- | --- | --- | --- | --- | --- | --- | --- | --- | --- | --- |
| O=C(N[C@H](CO)[C@H](O)c1ccc([N+](=O)[O-])cc1)C(Cl)Cl [chloramphenicol, reference compound] | 1.5 to 3 (≈ 0.485 to 0.969 µg/mL) | – | – | > 200 | > 200 | – | – | – | – | – | – |
| C[C@H]1c2cccc(O)c2C(=O)C2=C(O)[C@]3(O)C(=O)C(C(N)=O)=C(O)[C@@H](N(C)C)[C@@H]3[C@@H](O)[C@@H]21 [doxycycline, reference compound] | – | – | – | 25 (≈ 11.1 µg/mL) | 50 | – | 20 | – | – | – | – |
| CC[C@H]1OC(=O)[C@H](C)[C@@H](O[C@H]2C[C@@](C)(OC)[C@@H](O)[C@H](C)O2)[C@H](C)[C@@H](O[C@@H]2O[C@H](C)C[C@H](N(C)C)[C@H]2O)[C@](C)(O)C[C@@H](C)C(=O)[C@H](C)[C@@H](O)[C@]1(C)O [erythromycin, reference compound] | – | – | – | > 200 | > 200 | – | – | – | – | – | – |
| OC(Cn1cncn1)(Cn1cncn1)c1ccc(F)cc1F [fluconazole, reference compound] | – | 0.4 (≈ 0.123 µg/mL) | – | – | – | – | – | – | – | – | – |
| CN(C)c1ccc(O)c2c1C[C@H]1C[C@H]3[C@H](N(C)C)C(O)=C(C(N)=O)C(=O)[C@@]3(O)C(O)=C1C2=O [minocycline, reference compound] | – | – | – | – | 70 | – | – | – | – | – | – |
| CCn1cc(C(=O)O)c(=O)c2ccc(C)nc21 [nalidixic acid, reference compound] | – | – | – | > 200 | > 200 | – | – | – | – | – | – |
| [H]/N=C(/N)N[C@H]1[C@H](O)[C@@H](O)[C@H](O[C@@H]2O[C@@H](C)[C@](O)(C=O)[C@H]2O[C@@H]2O[C@@H](CO)[C@H](O)[C@@H](O)[C@@H]2NC)[C@@H](N/C(N)=N\[H])[C@@H]1O [streptomycin, reference compound] | 21.5 (≈ 12.5 µg/mL) | – | – | 21.5 (≈ 12.5 µg/mL) | 21.5 | – | – | – | – | – | – |
| CC/C(=C(\c1ccccc1)c1ccc(OCCN(C)C)cc1)c1ccccc1 [tamoxifen, reference compound] | – | – | – | – | – | – | – | – | – | 4.62 | – |
| CN[C@H](CC(C)C)C(=O)N[C@H]1C(=O)N[C@@H](CC(N)=O)C(=O)N[C@H]2C(=O)N[C@H]3C(=O)N[C@H](C(=O)N[C@H](C(=O)O)c4cc(O)cc(O)c4-c4cc3ccc4O)[C@H](O)c3ccc(c(Cl)c3)Oc3cc2cc(c3O[C@@H]2O[C@H](CO)[C@@H](O)[C@H](O)[C@H]2O[C@H]2C[C@](C)(N)[C@H](O)[C@H](C)O2)Oc2ccc(cc2Cl)[C@H]1O [vancomycin, reference compound] | – | – | – | – | – | – | – | – | – | – | 0.7 (≈ 1.01 µg/mL) |

Continued, in another order:

| MIC (S. aureus ATCC 25923) [µM] | MIC (C. albicans ATCC 90028) [µM] | MIC (MRSA ATCC 43300; MRSA ATCC 43300, mean (n = 2)) [µM] | MIC (E. coli ATCC 25922) [µM] | MIC (P. aeruginosa ATCC 27853 [2]; [4]) [µM] | S. aureus and MRSA MIC (range over both strains) (S. aureus ATCC 25923; S. aureus ATCC 25923 and MRSA, summary range in text) [µM] | MIC (P. aeruginosa ATCC 27853 [2]; ATCC27853, read-out: observed MIC of doxycycline) [µg/mL] | Structure (SMILES) | Conc (µM) for Potentiation of doxycycline (P. aeruginosa ATCC 27853 [1]) [µM] | Hem. HC10 (concentration of compound at 10% hemolytic activity) (human red blood cells) [µM] | pIC50 [3] | MIC (MRSA ATCC 43300) [µM] |
| --- | --- | --- | --- | --- | --- | --- | --- | --- | --- | --- | --- |
| 12.5 | > 40 | > 40 | 50 | > 200 | – | – | O=C(NCCCNCCCCCCNCCCNC(=O)C(=O)c1c[nH]c2ccccc12)C(=O)c1c[nH]c2ccccc12.O=C(O)C(F)(F)F.O=C(O)C(F)(F)F [Compound 17a, N^1,N^6-Bis(3-(2-(1H-indol-3-yl)-2-oxoacetamido)propyl)hexane-1,6-diaminium 2,2,2-trifluoroacetate] | 12.5 | – | – | – |
| 25 | > 39 | 39 | 25 | > 200 | – | – | O=C(NCCCNCCCCCCCNCCCNC(=O)C(=O)c1c[nH]c2ccccc12)C(=O)c1c[nH]c2ccccc12.O=C(O)C(F)(F)F.O=C(O)C(F)(F)F [Compound 17b, N^1,N^7-Bis(3-(2-(1H-indol-3-yl)-2-oxoacetamido)propyl)heptane-1,7-diaminium 2,2,2-trifluoroacetate] | 100 | >39 | 4.51 | – |
| 12.5 | > 39 | ≤ 0.3 | 50 | 200 | – | – | Cc1ccc2[nH]cc(C(=O)C(=O)NCCCNCCCCCCNCCCNC(=O)C(=O)c3c[nH]c4ccc(C)cc34)c2c1.O=C(O)C(F)(F)F.O=C(O)C(F)(F)F [Compound 20a, N^1,N^6-Bis(3-(2-(5-methyl-1H-indol-3-yl)-2-oxoacetamido)propyl)hexane-1,6-diaminium 2,2,2-trifluoroacetate] | 12.5 | – | < 4.41 | – |
| 6.25 | > 38 | ≤ 0.3 | 50 | 200 | – | – | Cc1ccc2[nH]cc(C(=O)C(=O)NCCCNCCCCCCCNCCCNC(=O)C(=O)c3c[nH]c4ccc(C)cc34)c2c1.O=C(O)C(F)(F)F.O=C(O)C(F)(F)F [Compound 20b, N^1,N^7-Bis(3-(2-(5-methyl-1H-indol-3-yl)-2-oxoacetamido)propyl)heptane-1,7-diaminium 2,2,2-trifluoroacetate] | 12.5 | >38 | – | – |
| 3.12 | > 37 | 4.7 | 12.5 | 800 | – | – | Cc1ccc2[nH]cc(C(=O)C(=O)NCCCNCCCCCCCCNCCCNC(=O)C(=O)c3c[nH]c4ccc(C)cc34)c2c1.O=C(O)C(F)(F)F.O=C(O)C(F)(F)F [Compound 20c, N^1,N^8-Bis(3-(2-(5-methyl-1H-indol-3-yl)-2-oxoacetamido)propyl)octane-1,8-diaminium 2,2,2-trifluoroacetate] | 400 | – | < 4.43 | – |
| 3.12 | 9 | ≤ 0.28 | 12.5 | 800 | – | – | Cc1ccc2[nH]cc(C(=O)C(=O)NCCCNCCCCCCCCCCNCCCNC(=O)C(=O)c3c[nH]c4ccc(C)cc34)c2c1.O=C(O)C(F)(F)F.O=C(O)C(F)(F)F [Compound 20d, N^1,N^10-Bis(3-(2-(5-methyl-1H-indol-3-yl)-2-oxoacetamido)propyl)decane-1,10-diaminium 2,2,2-trifluoroacetate] | 400 | – | < 4.44 | – |
| 3.12 | 2.2 | – | 12.5 | 800 | – | – | Cc1ccc2[nH]cc(C(=O)C(=O)NCCCNCCCCCCCCCCCCNCCCNC(=O)C(=O)c3c[nH]c4ccc(C)cc34)c2c1.O=C(O)C(F)(F)F.O=C(O)C(F)(F)F [Compound 20e, N^1,N^12-Bis(3-(2-(5-methyl-1H-indol-3-yl)-2-oxoacetamido)propyl)dodecane-1,12-diaminium 2,2,2-trifluoroacetate] | 400 | 2.0 | – | – |
| 25 (≈ 16.5 µg/mL) | > 36 | 4.5 (≈ 2.97 µg/mL) | 200 (≈ 132 µg/mL) | 800 | – | – | COc1cccc2c(C(=O)C(=O)NCCCNCCCCCCCCNCCCNC(=O)C(=O)c3c[nH]c4c(OC)cccc34)c[nH]c12 [Compound 22c] | 200 | >36 | – | – |
| 3.12 (≈ 2.24 µg/mL) | ≤ 0.26 | ≤ 0.26 | 12.5 (≈ 8.96 µg/mL) | 800 | 0.26 to 3.125 | – | COc1cccc2c(C(=O)C(=O)NCCCNCCCCCCCCCCCCNCCCNC(=O)C(=O)c3c[nH]c4c(OC)cccc34)c[nH]c12 [Compound 22e] | 400 | 0.93 | – | – |
| 7.1 | 18 | ≤ 0.28 | 14.1 | > 230 | – | – | Cc1cccc2c(C(=O)C(=O)NCCCNCCCCCCCCCCNCCCNC(=O)C(=O)c3c[nH]c4c(C)cccc34)c[nH]c12.O=C(O)C(F)(F)F.O=C(O)C(F)(F)F [Compound 23d, N^1,N^10-Bis(3-(2-(7-methyl-1H-indol-3-yl)-2-oxoacetamido)propyl)decane-1,10-diaminium 2,2,2-trifluoroacetate] | 230 | – | < 4.44 | – |
